Target: Helios (Homo sapiens, UniProt Q96SW2+Q9UKS7)
Assay: Helios Human T Regulatory Cells Degradation Assay
Assay type: cell-based
Set-up: fluorescently labelled antibodies against Helios in 1× Permeabilization buffer; endogenous in cells; host or cells: cryopreserved human T regulatory cells
Conditions: cryopreserved human T regulatory cells, incubated 20 hours, Helios-APC antibody staining, flow cytometry; read-out: hTreg Helios DC50
In short: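 Cryopreserved human Treg cells thawed in RPMI+10% FBS+20 ng/mL IL-2, rested 3 h, then incubated with compound 20 hours at 37° C, 5% CO2. Near-IR viability stain, permeabilization, flow cytometry read-out.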

Chain of Helios (Q9UKS7 whole entry): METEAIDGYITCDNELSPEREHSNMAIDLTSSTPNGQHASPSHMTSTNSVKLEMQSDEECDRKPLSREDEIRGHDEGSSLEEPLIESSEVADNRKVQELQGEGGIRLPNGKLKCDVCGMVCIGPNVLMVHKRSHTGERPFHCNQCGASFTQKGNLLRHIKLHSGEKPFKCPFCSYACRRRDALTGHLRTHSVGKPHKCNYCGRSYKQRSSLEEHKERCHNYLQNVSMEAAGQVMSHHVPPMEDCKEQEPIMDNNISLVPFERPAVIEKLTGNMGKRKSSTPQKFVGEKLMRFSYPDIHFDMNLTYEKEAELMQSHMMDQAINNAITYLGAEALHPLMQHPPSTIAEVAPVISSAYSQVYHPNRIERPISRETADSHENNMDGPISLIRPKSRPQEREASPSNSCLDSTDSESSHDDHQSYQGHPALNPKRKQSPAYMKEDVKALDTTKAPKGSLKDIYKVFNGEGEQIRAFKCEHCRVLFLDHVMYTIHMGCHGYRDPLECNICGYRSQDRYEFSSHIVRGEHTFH
Chain of Helios (Q96SW2 whole entry): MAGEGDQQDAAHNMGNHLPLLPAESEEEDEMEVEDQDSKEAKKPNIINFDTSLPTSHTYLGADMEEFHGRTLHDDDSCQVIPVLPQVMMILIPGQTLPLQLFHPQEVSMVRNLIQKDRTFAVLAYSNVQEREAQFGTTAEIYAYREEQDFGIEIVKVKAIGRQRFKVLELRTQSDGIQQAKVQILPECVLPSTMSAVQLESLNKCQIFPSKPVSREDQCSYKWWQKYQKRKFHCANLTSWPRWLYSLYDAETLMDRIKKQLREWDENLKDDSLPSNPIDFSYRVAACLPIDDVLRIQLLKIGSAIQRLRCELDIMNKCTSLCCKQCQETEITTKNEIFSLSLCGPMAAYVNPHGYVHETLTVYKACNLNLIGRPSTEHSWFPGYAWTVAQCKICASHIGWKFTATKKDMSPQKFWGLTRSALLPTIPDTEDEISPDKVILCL
Chain of Helios (Q16531 whole entry partner): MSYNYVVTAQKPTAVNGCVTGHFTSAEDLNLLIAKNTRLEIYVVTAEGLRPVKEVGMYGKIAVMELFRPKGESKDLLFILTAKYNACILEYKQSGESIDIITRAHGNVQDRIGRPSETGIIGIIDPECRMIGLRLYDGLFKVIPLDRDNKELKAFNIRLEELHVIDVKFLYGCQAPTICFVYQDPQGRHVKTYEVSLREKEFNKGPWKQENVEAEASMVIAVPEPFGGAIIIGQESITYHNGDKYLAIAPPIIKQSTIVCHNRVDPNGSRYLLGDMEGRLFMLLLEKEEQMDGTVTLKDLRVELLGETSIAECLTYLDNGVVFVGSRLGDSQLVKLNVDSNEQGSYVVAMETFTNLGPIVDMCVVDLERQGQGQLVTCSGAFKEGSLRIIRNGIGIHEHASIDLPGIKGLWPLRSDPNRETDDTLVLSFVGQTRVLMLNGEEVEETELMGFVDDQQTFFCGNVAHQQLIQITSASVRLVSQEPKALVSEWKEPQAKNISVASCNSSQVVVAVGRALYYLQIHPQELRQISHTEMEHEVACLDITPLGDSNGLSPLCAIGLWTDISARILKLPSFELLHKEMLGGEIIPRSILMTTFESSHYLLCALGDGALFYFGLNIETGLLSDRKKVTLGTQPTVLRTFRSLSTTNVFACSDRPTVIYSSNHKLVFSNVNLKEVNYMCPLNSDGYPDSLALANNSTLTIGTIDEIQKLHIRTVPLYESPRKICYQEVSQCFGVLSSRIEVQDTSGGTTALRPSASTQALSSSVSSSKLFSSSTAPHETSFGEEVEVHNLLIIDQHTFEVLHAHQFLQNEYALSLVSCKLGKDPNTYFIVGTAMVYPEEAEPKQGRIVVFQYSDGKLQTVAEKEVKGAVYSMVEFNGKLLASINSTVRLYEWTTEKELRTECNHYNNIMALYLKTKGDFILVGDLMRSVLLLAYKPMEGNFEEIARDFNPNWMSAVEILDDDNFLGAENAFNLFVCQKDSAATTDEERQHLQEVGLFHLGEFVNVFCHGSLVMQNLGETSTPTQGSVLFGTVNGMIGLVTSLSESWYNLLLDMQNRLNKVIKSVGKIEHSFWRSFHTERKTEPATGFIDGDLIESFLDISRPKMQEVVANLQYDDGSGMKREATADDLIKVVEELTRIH

Structure (SMILES) | DC50
CC1(O)CN(Cc2ccnc(-c3ccc4c(c3)CN(C3CCC(=O)NC3=O)C4=O)c2F)C1 (stereo not shown) [Example 224, 3-(5-(3-fluoro-4-((3-hydroxy-3-methylazetidin-1-yl)methyl)pyridin-2-yl)-1-oxoisoindolin-2-yl)piperidine-2,6-dione] | 72.9 nM
O=C1CCC(N2Cc3cc(-c4nccc(CN5CCC(O)CC5)c4F)ccc3C2=O)C(=O)N1 (stereo not shown) [Example 226, 3-(5-(3-fluoro-4-((4-hydroxypiperidin-1-yl)methyl)pyridin-2-yl)-1-oxoisoindolin-2-yl)piperidine-2,6-dione] | 51.5 nM
C[C@@H]1CN(Cc2ccnc(-c3ccc4c(c3)CN(C3CCC(=O)NC3=O)C4=O)c2F)C[C@H]1O (stereo partly drawn) [Example 232, 3-(5-(3-fluoro-4-(((3S,4R)-3-hydroxy-4-methylpyrrolidin-1-yl)methyl)pyridin-2-yl)-1-oxoisoindolin-2-yl)piperidine-2,6-dione] | 38.6 nM
O=C1CCC(N2Cc3cc(-c4nccc(CN5CCC(O)(c6ccc(F)cc6)C5)c4F)ccc3C2=O)C(=O)N1 (stereo not shown) [Example 234, 3-(5-(3-fluoro-4-((3-(4-fluorophenyl)-3-hydroxypyrrolidin-1-yl)methyl)pyridin-2-yl)-1-oxoisoindolin-2-yl)piperidine-2,6-dione] | 8410 nM
O=C1CCC(N2Cc3cc(-c4nccc(CN5CCC(O)(Cc6ccccc6)CC5)c4F)ccc3C2=O)C(=O)N1 (stereo not shown) [Example 235, 3-(5-(4-((4-benzyl-4-hydroxypiperidin-1-yl)methyl)-3-fluoropyridin-2-yl)-1-oxoisoindolin-2-yl)piperidine-2,6-dione] | 330 nM
CC1CC(O)(c2ccc(F)cc2)CN1Cc1ccnc(-c2ccc3c(c2)CN(C2CCC(=O)NC2=O)C3=O)c1F (stereo not shown) [Example 237, 3-(5-(3-fluoro-4-((4-(4-fluorophenyl)-4-hydroxy-2-methylpyrrolidin-1-yl)methyl)pyridin-2-yl)-1-oxoisoindolin-2-yl)piperidine-2,6-dione] | ≥ 10000 nM
O=C1CCC(N2Cc3cc(-c4nccc(CN5CCC(O)(c6ccccc6Cl)C5)c4F)ccc3C2=O)C(=O)N1 (stereo not shown) [Example 238, 3-(5-(4-((3-(2-chlorophenyl)-3-hydroxypyrrolidin-1-yl)methyl)-3-fluoropyridin-2-yl)-1-oxoisoindolin-2-yl)piperidine-2,6-dione] | 172 nM
Cc1cc(C2CCCN2Cc2ccnc(-c3ccc4c(c3)CN(C3CCC(=O)NC3=O)C4=O)c2F)on1 (stereo not shown) [Example 244, 3-(5-(3-fluoro-4-((2-(3-methylisoxazol-5-yl)pyrrolidin-1-yl)methyl)pyridin-2-yl)-1-oxoisoindolin-2-yl)piperidine-2,6-dione] | 242 nM
COC(=O)N[C@H]1CN(Cc2ccnc(-c3ccc4c(c3)CN(C3CCC(=O)NC3=O)C4=O)c2F)C[C@@H]1O (stereo partly drawn) [Example 248, methyl ((3S,4S)-1-((2-(2-(2,6-dioxopiperidin-3-yl)-1-oxoisoindolin-5-yl)-3-fluoropyridin-4-yl)methyl)-4-hydroxypyrrolidin-3-yl)carbamate] | ≥ 10000 nM
O=C1CCC(N2Cc3cc(-c4nccc(CN5CCC6(CC5)OCc5ccccc56)c4F)ccc3C2=O)C(=O)N1 (stereo not shown) [Example 249, 3-(5-(4-((3H-spiro[isobenzofuran-1,4′-piperidin]-1′-yl)methyl)-3-fluoropyridin-2-yl)-1-oxoisoindolin-2-yl)piperidine-2,6-dione] | ≥ 10000 nM
O=C1CCC(N2Cc3cc(-c4nccc(CN5CCCC(O)(c6ccccc6)C5)c4F)ccc3C2=O)C(=O)N1 (stereo not shown) [Example 250, 3-(5-(3-fluoro-4-((3-hydroxy-3-phenylpiperidin-1-yl)methyl)pyridin-2-yl)-1-oxoisoindolin-2-yl)piperidine-2,6-dione] | ≥ 10000 nM
COC(=O)N1CC2(CCN(Cc3ccnc(-c4ccc5c(c4)CN(C4CCC(=O)NC4=O)C5=O)c3F)CC2)C1 (stereo not shown) [Example 252, methyl 7-((2-(2-(2,6-dioxopiperidin-3-yl)-1-oxoisoindolin-5-yl)-3-fluoropyridin-4-yl)methyl)-2,7-diazaspiro[3.5]nonane-2-carboxylate] | ≥ 10000 nM
O=C1CCC(N2Cc3cc(-c4nccc(CN5CCc6[nH]ncc6C5)c4F)ccc3C2=O)C(=O)N1 (stereo not shown) [Example 254, 3-(5-(3-fluoro-4-((1,4,6,7-tetrahydro-5H-pyrazolo[4,3-c]pyridin-5-yl)methyl)pyridin-2-yl)-1-oxoisoindolin-2-yl) piperidine-2,6-dione] | ≥ 10000 nM

Other lines, results leading:

DC50 | Structure (SMILES)
9.8 nM | O=C1CCC(N2Cc3cc(-c4nccc(CN5CC6CC(C5)C6O)c4F)ccc3C2=O)C(=O)N1 (stereo not shown) [Example 219, 3-(5-(3-fluoro-4-((6-hydroxy-3-azabicyclo[3.1.1]heptan-3-yl)methyl)pyridin-2-yl)-1-oxoisoindolin-2-yl)piperidine-2,6-dione]
34.2 nM | CC1(O)CCCN(Cc2ccnc(-c3ccc4c(c3)CN(C3CCC(=O)NC3=O)C4=O)c2F)CC1 (stereo not shown) [Example 220, 3-(5-(3-fluoro-4-((4-hydroxy-4-methylazepan-1-yl)methyl)pyridin-2-yl)-1-oxoisoindolin-2-yl)piperidine-2,6-dione]
13900 nM | CC1(C)CN(Cc2ccnc(-c3ccc4c(c3)CN(C3CCC(=O)NC3=O)C4=O)c2F)CCC1O (stereo not shown) [Example 221, 3-(5-(3-fluoro-4-((4-hydroxy-3,3-dimethylpiperidin-1-yl)methyl)pyridin-2-yl)-1-oxoisoindolin-2-yl)piperidine-2,6-dione]
2760 nM | O=C1CCC(N2Cc3cc(-c4nccc(CN5CCC6(CC5)CC(O)CO6)c4F)ccc3C2=O)C(=O)N1 (stereo not shown) [Example 222, 3-(5-(3-fluoro-4-((3-hydroxy-1-oxa-8-azaspiro[4.5]decan-8-yl)methyl)pyridin-2-yl)-1-oxoisoindolin-2-yl)piperidine-2,6-dione]
29.3 nM | O=C1CCC(N2Cc3cc(-c4nccc(CN5CCC6(CC5)CC(O)C6)c4F)ccc3C2=O)C(=O)N1 (stereo not shown) [Example 225, 3-(5-(3-fluoro-4-((2-hydroxy-7-azaspiro[3.5]nonan-7-yl)methyl)pyridin-2-yl)-1-oxoisoindolin-2-yl)piperidine-2,6-dione]
≥ 10000 nM | CC(=O)N1CC2CCC(C1)N2Cc1ccnc(-c2ccc3c(c2)CN(C2CCC(=O)NC2=O)C3=O)c1F (stereo not shown) [Example 227, 3-(5-(4-((3-acetyl-3,8-diazabicyclo[3.2.1]octan-8-yl)methyl)-3-fluoropyridin-2-yl)-1-oxoisoindolin-2-yl)piperidine-2,6-dione]
≥ 10000 nM | CC(C)(C)OC(=O)N[C@H]1C[C@H](F)CN(Cc2ccnc(-c3ccc4c(c3)CN(C3CCC(=O)NC3=O)C4=O)c2F)C1 (stereo partly drawn) [Example 236, tert-butyl ((3S,5S)-1-((2-(2-(2,6-dioxopiperidin-3-yl)-1-oxoisoindolin-5-yl)-3-fluoropyridin-4-yl)methyl)-5-fluoropiperidin-3-yl)carbamate]
≥ 10000 nM | CC(=O)N1CC2(CCN(Cc3ccnc(-c4ccc5c(c4)CN(C4CCC(=O)NC4=O)C5=O)c3F)CC2)C1 (stereo not shown) [Example 251, 3-(5-(4-((2-acetyl-2,7-diazaspiro[3.5]nonan-7-yl)methyl)-3-fluoropyridin-2-yl)-1-oxoisoindolin-2-yl)piperidine-2,6-dione]
≥ 10000 nM | O=C1CCC(N2Cc3cc(-c4nccc(CN5CCCC(F)(c6ccccc6)C5)c4F)ccc3C2=O)C(=O)N1 (stereo not shown) [Example 253, 3-(5-(3-fluoro-4-((3-fluoro-3-phenylpiperidin-1-yl)methyl)pyridin-2-yl)-1-oxoisoindolin-2-yl)piperidine-2,6-dione]
